# According to patent publication US6914045B2, “Glycopeptide antibiotics” (Wyeth Holdings Corporation, priority 2001, dated 2005):
# Columns and labels:
# Assay in all cases: in vitro antibacterial evaluation, MIC by broth dilution
# Format in all cases: cell-based
# [1] = tested on: Enterococcus sp.; conditions: broth dilution, 18 hours at 35° C.; for MIC Enterococcus faecalis (ATCC 29212): strain ATCC 29212; for MIC Enterococcus faecalis (GC 2242): strain GC 2242; for MIC Enterococcus faecium (GC 2243): strain GC 2243; for MIC Enterococcus faecalis (GC 2691): strain GC 2691; for MIC Enterococcus faecalis (GC 3059): strain GC 3059; for MIC Enterococcus faecalis (GC 4552): strain GC 4552; for MIC Enterococcus faecalis (GC 4553): strain GC 4553; for MIC Enterococcus faecalis (GC 4554): strain GC 4554; for MIC Enterococcus faecium (GC 4556): strain GC 4556; for MIC Enterococcus faecium (GC 4557): strain GC 4557; for MIC Enterococcus avium (GC 4558): strain GC 4558; for MIC Enterococcus faecalis (GC 6189): strain GC 6189
# How it was run: (§1)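 Following National Committee for Clinical Laboratory Standards recommendations (M7-A2), susceptibility was measured by dilution in Muller-Hinton II […]. Bacteria were seeded at 5×10^5 CFU/mL against compound concentrations from 64 down to 0.06 μg/mL.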
# [2] = tested on: Escherichia coli; conditions: for MIC Escherichia coli (ATCC 25922): strain ATCC 25922, 18 hours at 35° C.; for MIC Escherichia coli (GC 4559): strain GC 4559, 18 hours at 35° C.; for MIC Escherichia coli (GC 4560): strain GC 4560, 18 hours at 35° C.
# How it was run: as §1
# [3] = tested on: Staphylococcus sp.; conditions: broth dilution, 18 hours at 35° C.; for MIC Staphylococcus aureus (GC 1131): strain GC 1131; for MIC Staphylococcus aureus (ATCC 29213): strain ATCC 29213; for MIC Staphylococcus aureus (GC 3051): strain GC 3051; for MIC Staphylococcus aureus (GC 3053): strain GC 3053; for MIC Staphylococcus aureus (GC 4541): strain GC 4541; for MIC Staphylococcus aureus (GC 4542): strain GC 4542; for MIC Staphylococcus aureus (GC 4544): strain GC 4544; for MIC Staphylococcus aureus (GC 4545): strain GC 4545; for MIC Staphylococcus aureus-SMITH (GC 4543): strain GC 4543; for MIC Staphylococcus haemolyticus (GC 4546): strain GC 4546; for MIC Coagulase Negative Staphylococcus (GC 4547): strain GC 4547; for MIC Coagulase Negative Staphylococcus (GC 4548): strain GC 4548; for MIC Coagulase Negative Staphylococcus (GC 4549): strain GC 4549; for MIC Coagulase Negative Staphylococcus (GC 4551): strain GC 4551; for MIC Coagulase Negative Staphylococcus (GC 6257): strain GC 6257
# How it was run: as §1
# [4] = tested on: Streptococcus sp.; conditions: broth dilution, 18 hours at 35° C.; for MIC Streptococcus pneumoniae (ATCC 6301): strain ATCC 6301; for MIC Streptococcus pneumoniae (GC 1894): strain GC 1894; for MIC Streptococcus pyogenes (GC 4563): strain GC 4563; for MIC Streptococcus agalactiae (GC 4564): strain GC 4564; for MIC Streptococcus pneumoniae (GC 4565): strain GC 4565
# How it was run: as §1
structure (smiles),measurement,setting,value
CC(c1ccccc1)C1NC(=O)CNC(=O)C(CO)NC(=O)C(C(O)C2CNC(=N)N2C2OC(CO)C(O)C(O)C2O)NC(=O)C(C(O)C2CNC(=N)N2)NC(=O)C(Cc2ccc(OC3OC(CO)C(OC4OC5COC(c6cccc(OCc7ccc([N+](=O)[O-])cc7)c6)OC5C(O)C4O)C(O)C3O)cc2)NC1=O (stereo not shown) [Example 182],MIC Enterococcus faecalis (ATCC 29212),[1]; inoculum 5×10^5 CFU/mL,>64 µg/mL
same,MIC Enterococcus faecalis (GC 2242),[1]; inoculum 5×10^5 CFU/mL,>64 µg/mL
same,MIC Enterococcus faecium (GC 2243),[1]; inoculum 5×10^5 CFU/mL,>64 µg/mL
same,MIC Enterococcus faecalis (GC 2691),[1]; inoculum 5×10^5 CFU/mL,>64 µg/mL
same,MIC Enterococcus faecalis (GC 3059),[1]; inoculum 5×10^5 CFU/mL,>64 µg/mL
same,MIC Enterococcus faecalis (GC 4552),[1]; inoculum 5×10^5 CFU/mL,>64 µg/mL
same,MIC Enterococcus faecalis (GC 4553),[1]; inoculum 5×10^5 CFU/mL,>64 µg/mL
same,MIC Enterococcus faecalis (GC 4554),[1]; inoculum 5×10^5 CFU/mL,>64 µg/mL
same,MIC Enterococcus faecium (GC 4556),[1]; inoculum 5×10^5 CFU/mL,>64 µg/mL
same,MIC Enterococcus faecium (GC 4557),[1]; inoculum 5×10^5 CFU/mL,>64 µg/mL
same,MIC Enterococcus avium (GC 4558),[1]; inoculum 5×10^5 CFU/mL,>64 µg/mL
same,MIC Enterococcus faecalis (GC 6189),[1]; inoculum 5×10^5 CFU/mL,>64 µg/mL
same,MIC Enterococcus faecalis (ATCC 29212),[1],>64 µg/mL
same,MIC Enterococcus faecalis (GC 2242),[1],>64 µg/mL
same,MIC Enterococcus faecium (GC 2243),[1],>64 µg/mL
same,MIC Enterococcus faecalis (GC 2691),[1],>64 µg/mL
same,MIC Enterococcus faecalis (GC 3059),[1],>64 µg/mL
same,MIC Enterococcus faecalis (GC 4552),[1],>64 µg/mL
same,MIC Enterococcus faecalis (GC 4553),[1],>64 µg/mL
same,MIC Enterococcus faecalis (GC 4554),[1],>64 µg/mL
same,MIC Enterococcus faecium (GC 4556),[1],>64 µg/mL
same,MIC Enterococcus faecium (GC 4557),[1],>64 µg/mL
same,MIC Enterococcus avium (GC 4558),[1],>64 µg/mL
same,MIC Enterococcus faecalis (GC 6189),[1],>64 µg/mL
same,MIC Escherichia coli (ATCC 25922),[2],>64 µg/mL
same,MIC Escherichia coli (GC 4559),[2],>64 µg/mL
same,MIC Escherichia coli (GC 4560),[2],>64 µg/mL
same,MIC Staphylococcus aureus (GC 1131),[3]; inoculum 5×10^5 CFU/mL,>64 µg/mL
same,MIC Staphylococcus aureus (ATCC 29213),[3],>64 µg/mL
same,MIC Staphylococcus aureus (GC 1131),[3],>64 µg/mL
same,MIC Staphylococcus aureus (GC 3051),[3],>64 µg/mL
same,MIC Staphylococcus aureus (GC 3053),[3],>64 µg/mL
same,MIC Staphylococcus aureus (GC 4541),[3],>64 µg/mL
same,MIC Staphylococcus aureus (GC 4542),[3],>64 µg/mL
same,MIC Staphylococcus aureus (GC 4544),[3],>64 µg/mL
same,MIC Staphylococcus aureus (GC 4545),[3],>64 µg/mL
same,MIC Staphylococcus aureus-SMITH (GC 4543),[3],>64 µg/mL
same,MIC Staphylococcus haemolyticus (GC 4546),[3],>64 µg/mL
same,MIC Coagulase Negative Staphylococcus (GC 4547),[3],>64 µg/mL
same,MIC Coagulase Negative Staphylococcus (GC 4548),[3],>64 µg/mL
same,MIC Coagulase Negative Staphylococcus (GC 4549),[3],>64 µg/mL
same,MIC Coagulase Negative Staphylococcus (GC 4551),[3],>64 µg/mL
same,MIC Coagulase Negative Staphylococcus (GC 6257),[3],>64 µg/mL
same,MIC Streptococcus pneumoniae (ATCC 6301),[4]; inoculum 5×10^5 CFU/mL,4 µg/mL
same,MIC Streptococcus pneumoniae (GC 1894),[4]; inoculum 5×10^5 CFU/mL,8 µg/mL
same,MIC Streptococcus pyogenes (GC 4563),[4]; inoculum 5×10^5 CFU/mL,64 µg/mL
same,MIC Streptococcus agalactiae (GC 4564),[4]; inoculum 5×10^5 CFU/mL,32 µg/mL
same,MIC Streptococcus pneumoniae (GC 4565),[4]; inoculum 5×10^5 CFU/mL,8 µg/mL
same,MIC Streptococcus pneumoniae (ATCC 6301),[4],4 µg/mL
same,MIC Streptococcus pneumoniae (GC 1894),[4],8 µg/mL
same,MIC Streptococcus pyogenes (GC 4563),[4],64 µg/mL
same,MIC Streptococcus agalactiae (GC 4564),[4],32 µg/mL
same,MIC Streptococcus pneumoniae (GC 4565),[4],8 µg/mL
CC(C)=CCCC(C)=CCOc1ccc(C2OCC3OC(OC4C(CO)OC(Oc5ccc(CC6NC(=O)C(C(C)c7ccccc7)NC(=O)CNC(=O)C(CO)NC(=O)C(C(O)C7CNC(=N)N7C7OC(CO)C(O)C(O)C7O)NC(=O)C(C(O)C7CNC(=N)N7)NC6=O)cc5)C(O)C4O)C(O)C(O)C3O2)cc1 (stereo not shown) [Example 183],MIC Enterococcus faecalis (ATCC 29212),[1]; inoculum 5×10^5 CFU/mL,8 µg/mL
same,MIC Enterococcus faecalis (GC 2242),[1]; inoculum 5×10^5 CFU/mL,8 µg/mL
same,MIC Enterococcus faecium (GC 2243),[1]; inoculum 5×10^5 CFU/mL,2 µg/mL
same,MIC Enterococcus faecalis (GC 2691),[1]; inoculum 5×10^5 CFU/mL,2 µg/mL
same,MIC Enterococcus faecalis (GC 3059),[1]; inoculum 5×10^5 CFU/mL,4 µg/mL
same,MIC Enterococcus faecalis (GC 4552),[1]; inoculum 5×10^5 CFU/mL,8 µg/mL
same,MIC Enterococcus faecalis (GC 4553),[1]; inoculum 5×10^5 CFU/mL,4 µg/mL
same,MIC Enterococcus faecalis (GC 4554),[1]; inoculum 5×10^5 CFU/mL,4 µg/mL
same,MIC Enterococcus faecium (GC 4556),[1]; inoculum 5×10^5 CFU/mL,8 µg/mL
same,MIC Enterococcus faecium (GC 4557),[1]; inoculum 5×10^5 CFU/mL,4 µg/mL
same,MIC Enterococcus avium (GC 4558),[1]; inoculum 5×10^5 CFU/mL,2 µg/mL
same,MIC Enterococcus faecalis (GC 6189),[1]; inoculum 5×10^5 CFU/mL,2 µg/mL
same,MIC Enterococcus faecalis (ATCC 29212),[1],8 µg/mL
same,MIC Enterococcus faecalis (GC 2242),[1],8 µg/mL
same,MIC Enterococcus faecium (GC 2243),[1],2 µg/mL
same,MIC Enterococcus faecalis (GC 2691),[1],2 µg/mL
same,MIC Enterococcus faecalis (GC 3059),[1],4 µg/mL
same,MIC Enterococcus faecalis (GC 4552),[1],8 µg/mL
same,MIC Enterococcus faecalis (GC 4553),[1],4 µg/mL
same,MIC Enterococcus faecalis (GC 4554),[1],4 µg/mL
same,MIC Enterococcus faecium (GC 4556),[1],8 µg/mL
same,MIC Enterococcus faecium (GC 4557),[1],4 µg/mL
same,MIC Enterococcus avium (GC 4558),[1],2 µg/mL
same,MIC Enterococcus faecalis (GC 6189),[1],2 µg/mL
same,MIC Escherichia coli (ATCC 25922),[2],>64 µg/mL
same,MIC Escherichia coli (GC 4559),[2],>64 µg/mL
same,MIC Escherichia coli (GC 4560),[2],4 µg/mL
same,MIC Staphylococcus aureus (GC 1131),[3]; inoculum 5×10^5 CFU/mL,8 µg/mL
same,MIC Staphylococcus aureus (ATCC 29213),[3],4 µg/mL
same,MIC Staphylococcus aureus (GC 1131),[3],8 µg/mL
same,MIC Staphylococcus aureus (GC 3051),[3],2 µg/mL
same,MIC Staphylococcus aureus (GC 3053),[3],2 µg/mL
same,MIC Staphylococcus aureus (GC 4541),[3],8 µg/mL
same,MIC Staphylococcus aureus (GC 4542),[3],4 µg/mL
same,MIC Staphylococcus aureus (GC 4544),[3],4 µg/mL
same,MIC Staphylococcus aureus (GC 4545),[3],4 µg/mL
same,MIC Staphylococcus aureus-SMITH (GC 4543),[3],4 µg/mL
same,MIC Staphylococcus haemolyticus (GC 4546),[3],8 µg/mL
same,MIC Coagulase Negative Staphylococcus (GC 4547),[3],4 µg/mL
same,MIC Coagulase Negative Staphylococcus (GC 4548),[3],2 µg/mL
same,MIC Coagulase Negative Staphylococcus (GC 4549),[3],4 µg/mL
same,MIC Coagulase Negative Staphylococcus (GC 4551),[3],4 µg/mL
same,MIC Coagulase Negative Staphylococcus (GC 6257),[3],2 µg/mL
same,MIC Streptococcus pneumoniae (ATCC 6301),[4]; inoculum 5×10^5 CFU/mL,<0.06 µg/mL
same,MIC Streptococcus pneumoniae (GC 1894),[4]; inoculum 5×10^5 CFU/mL,<0.06 µg/mL
same,MIC Streptococcus pyogenes (GC 4563),[4]; inoculum 5×10^5 CFU/mL,<0.06 µg/mL
same,MIC Streptococcus agalactiae (GC 4564),[4]; inoculum 5×10^5 CFU/mL,<0.06 µg/mL
same,MIC Streptococcus pneumoniae (GC 4565),[4]; inoculum 5×10^5 CFU/mL,<0.06 µg/mL
same,MIC Streptococcus pneumoniae (ATCC 6301),[4],<0.06 µg/mL
same,MIC Streptococcus pneumoniae (GC 1894),[4],<0.06 µg/mL
same,MIC Streptococcus pyogenes (GC 4563),[4],<0.06 µg/mL
same,MIC Streptococcus agalactiae (GC 4564),[4],<0.06 µg/mL
same,MIC Streptococcus pneumoniae (GC 4565),[4],<0.06 µg/mL
